Consider 6 compounds from patent publication US9877938B2 (priority 2014, dated 2018).

Data set [1] concerns male mice (C57BL/6) fed high-fat diet. In words: Body weight and body weight gain of high-fat diet mice. It is filed as in vivo. The settings on record: for Body weight gain, Mean: HFD mice, metformin 250 mg/kg; for Body weight gain: mean; for body weight gain compared to high-fat diet (HFD) alone (in words): at 8 weeks after HFD feeding. Here is the method: (§1) Using 8-week-old male mice (C57BL/6) (purchased from CoreTech), anti-diabetic candidate materials were evaluated using a GTT (Glucose Tolerance Test) that is a typical method for diagnosis of diabetes.
(§2) Mice were housed at a temperature of 22±2° C. and a relative humidity of 55-60% with 12-hr light/12-hr dark cycles. Five animals were allotted to each group, and mice from the same mother were grouped into one group, because male mice tend to fight together.
(§3) As feed, high-fat diet (60% of calories from fat; Research Diet Inc., New Brunswick, N.J.) and water were fed ad libitum for 10 weeks. Herein, the water fed contained the samples prepared in Examples 1-2 (3), 2-1, 2-4-1, 2-4-2 and 2-5. As a positive control, metformin (M-072, Sigma) (250 mg/kg) was used, and as a control, the samples prepared in Comparative Examples 1-1, 2-3-2, 2-5-1, 2-5-2 and 2-6 were used.
(§4) For reference, each of the samples prepared in Examples 2-4-1, 2-4-2 and 2-5 was set to the amount to be taken by an adult (60 kg) for 3 days, and the amount was converted into a mouse dose (12-fold/kg, see the US NIH guidance), thereby preparing animal feed. Namely, the amount to be taken by an adult (60 kg) for 3 days is 180-day dose/kg, which corresponds to 15-day dose/kg for mice. Thus, the amount corresponds to 750-day dose/mouse (20 g), because the average weight of mice is about 20 g. Thus, one mouse was allowed to take 1/750 of the prepared sample each day.
(§5) In addition, each of the samples prepared in Examples 1-2 (3) and 2-1 was set to the amount to be taken by an adult (60 kg) for 2 days, and the amount was converted into a mouse dose (12-fold/kg, see the US NIH guidance), thereby preparing animal feed. Namely, the amount to be taken by an adult (60 kg) for 2 days is 120-day dose/kg, which corresponds to 10-day dose/kg for mice. Thus, the amount corresponds to 500-day dose/mouse (20 g), because the average weight of mice is about 20 g. Thus, one mouse was allowed to take 1/500 of the prepared sample each day.
The diet intake and the body weight gain were measured weekly for 8 weeks. The body weight and the diet intake were measured immediately before first drug administration, and then measured at one-week intervals.
(§6) Meanwhile, experimental analysis results were expressed as mean±S.E.M., and the significance between test groups was statistically processed using Student T-TEST, and then the significance was verified at *P<0.05.

In data set [2] the test system is plasma. As to the kind of experiment: Anticoagulant activity: prothrombin time (PT), Sysmex CA-1500. It is filed as biochemical, human. Particulars: 20 μl sample + 80 μl plasma, test material g/dL as in label, Asp 7.5 mg/ml, N=3. As to the method: (§7) Antithrombotic (anticoagulant) activity was evaluated according to a previously reported method. Each of thromborel S, actin and thrombin, which are reagents for Sysmex CA-1500 for analysis of PT, aPTT and TT, was mounted in Sysmex CA-1500 (Siemens Healthcare, Germany) which is an automated blood coagulation test device. According to the automated procedure of the test device, clotting time (sec) (prothrombin time (PT), activated partial thromboplastin time (aPTT) and thrombin time (TT)) was measured. A sufficient amount of a sample for each of the three analyses was about 400 uL of an 80:20 mixture of plasma and a test substance.
(§8) The isolated plasma was used in an experiment in a fresh state within 5-6 hours.
(§9) In this experiment, for the relative comparison of the measured clotting time (sec) (PT, aPTT and TT) between test groups, clotting time prolongation (%) relative to triple distilled water (purified water) that is a normal control test sample was statistically analyzed. For statistical analysis, the […] anticoagulant activities of test materials were comparatively analyzed using SPSS IBM version 21.0 by one-way ANOVA at p<0.05, and significance comparison between groups was performed by Duncan's test.
The aspirin solution was immediately used at room temperature in a light-shielded state or was cold-stored.
As a control, aspirin was used, and as a vehicle control, triple distilled water (purified water) was used instead of the sample.

The subject of data set [3] is plasma. As to the kind of experiment: Anticoagulant activity: activated partial thromboplastin time (aPTT), Sysmex CA-1500. It is filed as biochemical, human. Particulars: Table 4; 20 μl sample + 80 μl plasma; test material g/dL as in label; Asp 7.5 mg/ml; N=3. Here is the method: as §7, §8, §9
The aspirin solution was immediately used at room temperature in a light-shielded state or was cold-stored. […]

Data set [4] has as its system male mice (C57BL/6) fed high-fat diet. In words: Glucose tolerance test (GTT) in high-fat diet mice. Type of data set: in vivo. The settings on record: for fasting glucose level (in words) / glucose control ability in GTT compared with HFD alone (in words): 8 weeks of HFD; for fasting glucose level (in words): 8 h fasting, compared with HFD alone, normal mice or other group; for glucose control ability in GTT compared with HFD alone (in words): glucose 1 g/kg i.p.; for Glucose level: mean. Here is the method: as §1, §2, §3, §4, §5
At 8 weeks of high-fat diet feeding, a glucose tolerance test (GTT) was performed. For 8 hours for the test, mice were fasted. Then, blood was sampled from the tail vein, and initial blood glucose levels were measured with a blood glucose meter (AUTO-CHEK, Diatech Korea). Then, glucose was administered intraperitoneally to the mice at a concentration of 1 g/kg, and after 30 min, 60 min, 90 min and 120 min, blood was sampled from the mice, followed by measurement of blood glucose levels (each group consisting of five animals).
as §6

The test system is the same in data set [5]. In words: Blood biochemistry (triglyceride, AST, ALT) in high-fat diet mice. Type of data set: in vivo. As to the method:
as §3, §4, §5
In blood biochemistry, insulin (AKRIN-011T, Shibayagi, Japan), glucose (AM202, Asan Pharmaceutical Co., Ltd., Korea), triglyceride (AM157, Asan Pharmaceutical Co., Ltd.), total cholesterol (AM202, Asan Pharmaceutical Co., Ltd.), AST and ALT (Asan Pharmaceutical Co., Ltd.) were analyzed using enzymatic assay kits.
(§10) At 10 weeks of high-fat diet feeding, the mice were sacrificed by cervical dislocation to obtain serum. For histological examination, the liver, white adipose tissue (WAT), brown adipose tissue (BAT) and kidney were fixed with formalin (50-00-0, Junsei, Japan), and the remaining organs were stored at −70° C. The blood sampled from the heart was coagulated to obtain serum which was then stored at −70° C.
as §6

The test system is the same in data set [6]. As to the kind of experiment: Histological examination of liver, WAT, BAT and kidney. Type of data set: in vivo. The settings on record: HFD mice, 10 weeks. Here is the method: as §3, §10
For histological examination, the major organs and adipose were fixed in 4% neutral buffered formalin and embedded in paraffin blocks, and the paraffin blocks were sectioned at 5 μm and stained with hymatoxylin (MHS-16, Sigma-Aldrich, USA) and eosin (HT110116, Sigma-Aldrich). The prepared tissue samples were mounted in glycerin gel mounting media (SP15-100, Fisher Scientific, USA), covered with cover glass, and observed with a microscope (IX71, OLYMPUS, USA). The tissue was imaged with the camera equipped in the microscope.

The mark [7] stands for this setting: 8 weeks, sample in drinking water (1/500 per day), Tables 6, 9, 12.
The mark [8] stands for this setting: HFD mice serum, compared with reference diet, HFD or other group.

For `CN(C)C(=N)N=C(N)N` [Metformin, metformin], the “Body weight gain, Mean” value in data set [1] (1 week, Table 15 experiment, sample in drinking water (1/750 per day)) is on record as 2.445 g; in data set [1] (4 weeks, Table 15 experiment, sample in drinking water (1/750 per day)) it was 4.600 g; in data set [1] (8 weeks, Table 15 experiment, sample in drinking water (1/750 per day)), 8.238 g. The Body weight gain in data set [1] (2 weeks) is listed as 2.503 g; in data set [1] (3 weeks) it was 4.020 g; in data set [1] (4 weeks), 4.600 g; in data set [1] (5 weeks) it was 6.093 g; in data set [1] (6 weeks), 7.250 g; in data set [1] (7 weeks), 6.263 g.

As to `CC(=O)Oc1ccccc1C(=O)O` [Asp, aspirin], in the data set with plasma [2] (Table 2), the “PT clotting time prolongation relative to purified water, Mean” value was 9.90%.

As for `O=C(CO)[C@@H](O)[C@H](O)[C@H](O)CO` [Fruc 6.2, fructose], in the data set with plasma [3], the “aPTT clotting time prolongation relative to purified water, Mean” value is −0.20%. In the data set on plasma [2] (Table 4), the “PT clotting time prolongation relative to purified water, Mean” value is listed as 0.54%.

For the compound `O=C(CO)[C@@H](O)[C@H](O)[C@H](O)CO` [Fruc 12.4, fructose], the “aPTT clotting time prolongation relative to purified water, Mean” value in the data set with plasma [3] came out at 0.58%. For the same compound, in the data set with plasma [2] (Table 4), the “PT clotting time prolongation relative to purified water, Mean” value was found to be 0.54%.

For the compound `NCCS(=O)(=O)O` [DT19, taurine, reference compound], in data set [4], the “fasting glucose level (in words)” value is “lower than that of the mice administered with high-fat diet (HFD), and were similar to the blood glucose levels of normal mice”; the “glucose control ability in GTT compared with HFD alone (in words)” value was “significantly higher than that of the group administered with HFD alone”. Also, in data set [1] (setting [7]), the “Body weight gain, Mean” value was 9.52 g. Besides, the “body weight gain compared to high-fat diet (HFD) alone (in words)” value in data set [1] is given as “significant reduction in body weight gain”.

Take `NCCS(=O)(=O)O` [DT15]: the “triglyceride level (in words)” value in data set [5] (HFD mice serum, compared with normal/reference diet or other group) is on record as “significantly lower than that of DT19”. The “ALT level (in words)” value in data set [5] (setting [8]) is recorded as “lower than those of DT19”. For the same compound, the “AST level (in words)” value in data set [5] (setting [8]) is “lower than those of DT19”. In data set [5] (blood, mean), this compound gave an ALT level of 14.02 IU/L. The compound further yielded an AST level in data set [5] (blood, mean) of 98.96 IU/L. The compound further gave a Triglyceride level in data set [5] (blood, mean) of 53.62 mg/dL. Besides, the “fasting glucose level (in words)” value in data set [4] is “lower than that of the mice administered with high-fat diet (HFD), and were similar to the blood glucose levels of normal mice”. Also, in data set [4], the “glucose control ability in GTT compared with HFD alone (in words)” value is “significantly higher than that of the group administered with HFD alone”. The Glucose level is 121.25 mg/dL in data set [4] (GTT 0 min (fasting)); 335.25 mg/dL in data set [4] (GTT 30 min); 295.25 mg/dL in data set [4] (GTT 60 min); 193.75 mg/dL in data set [4] (GTT 90 min); 126.25 mg/dL in data set [4] (GTT 120 min). Also, the “Body weight gain, Mean” value in data set [1] (2 weeks, sample in drinking water (1/500 per day), Tables 6, 9, 12) worked out at 4.40 g; in data set [1] (setting [7]) it was 11.58 g. For the same compound, the “body weight gain compared to high-fat diet (HFD) alone (in words)” value in data set [1] is given as “significant reduction in body weight gain”. Further, the “accumulation of adipose in brown adipose tissue (histology)” value in data set [6] is on record as “decreased”. The “development of fatty liver (histology)” value in data set [6] is given as “decreased”. The “nephrotoxicity (histology)” value in data set [6] (kidney) is “did not appear”.
